Test results as given in PubChem BioAssay AID1259411 (Chemical Carcinogenesis Research Information System (CCRIS), 2018).
Active and inactive are the calls of the source. The rule behind the calls is not given here.

Tested on: rodent carcinogenicity bioassays, tumor incidence
Assay: CCRIS carcinogenicity studies
In short: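 Archive of carcinogenicity, mutagenicity, tumor promotion and tumor inhibition results drawn from journals, NCI reports and other sources, expert-reviewed; covers 1985-2011 and is no longer updated.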

Measured: carcinogen call

CCCCOC(=O)c1ccccc1C(=O)OCc1ccccc1
equivocal: Species: RAT, Strain/Sex: F344/FEMALE, Route: ORAL, Dose: 0, 6000, 12000, 24000 PPM IN DIET FOR DURATION OF STUDY (STUDY DURATION: 104 WK), Dose: 0, 6000, 12000, 24000 PPM IN DIET FOR DURATION OF STUDY (STUDY DURATION: 104 WK), Tumor Site: Type of Lesion: PANCREAS: ACINAR CELL ADENOMA, URINARY BLADDER: TRANSITIONAL EPITHELIAL PAPILLOMA
active: Species: RAT, Strain/Sex: F344/MALE, Route: ORAL, Dose: 0, 3000, 6000, 12000 PPM IN DIET FOR DURATION OF STUDY (STUDY DURATION: 104 WK), Dose: 0, 3000, 6000, 12000 PPM IN DIET FOR DURATION OF STUDY (STUDY DURATION: 104 WK), Tumor Site: Type of Lesion: PANCREAS: ACINAR CELL ADENOMA, ACINAR CELL ADENOMA OR CARCINOMA active; positive | Species: RAT, Strain/Sex: F344/MALE, Route: ORAL, Dose: 0, 12000 PPM IN DIET FOR 105 WK, CONTROL AND DOSED GROUPS FED AD LIBITUM (STUDY DURATION 2 YR), Tumor Site: Type of Lesion: PANCREAS(ACINUS): ADENOMA active; positive | Species: RAT, Strain/Sex: F344/MALE, Route: ORAL, Dose: 0, 12000 PPM IN DIET FOR 105 WK, CONTROL GROUP WAS WEIGHT-MATCHED TO DOSED GROUP (STUDY DURATION: 2 YR), Tumor Site: Type of Lesion: PANCREAS(ACINUS): ADENOMA active; positive
inactive: Species: MOUSE, Strain/Sex: B6C3F1/FEMALE, Route: ORAL, Dose: 0, 6000, 12000 PPM IN DIET FOR 103 WK (STUDY DURATION: 105-106 WK), Dose: 0, 6000, 12000 PPM IN DIET FOR 103 WK (STUDY DURATION: 105-106 WK) inactive; negative | Species: MOUSE, Strain/Sex: B6C3F1/MALE, Route: ORAL, Dose: 0, 6000, 12000 PPM IN DIET FOR 103 WK (STUDY DURATION: 104-106 WK), Dose: 0, 6000, 12000 PPM IN DIET FOR 103 WK (STUDY DURATION: 104-106 WK) inactive; negative | Species: RAT, Strain/Sex: F344/FEMALE, Route: ORAL, Dose: 0, 24000 PPM IN DIET FOR 105 WK, CONTROL GROUP DIET RESTRICTED TO LIMIT WEIGHTS TO 85% OF AD LIBITUM-FED GROUP (STUDY DU inactive; negative | Species: RAT, Strain/Sex: F344/FEMALE, Route: ORAL, Dose: 0, 24000 PPM IN DIET FOR 106 WK, CONTROL AND DOSED GROUP FED AD LIBITUM (STUDY DURATION: 2 YR) inactive; negative | Species: RAT, Strain/Sex: F344/FEMALE, Route: ORAL, Dose: 0, 24000 PPM IN DIET FOR 106 WK, CONTROL GROUP WAS WEIGHT-MATCHED TO DOSED GROUP (STUDY DURATION: 2 YR) inactive; negative | Species: RAT, Strain/Sex: F344/MALE, Route: ORAL, Dose: 0, 12000 PPM IN DIET FOR 105 WK, CONTROL GROUP DIET RESTRICTED TO LIMIT WEIGHTS TO 85% OF AD LIBITUM-FED GROUPS (STUDY D inactive; negative | Species: RAT, Strain/Sex: F344/MALE, Route: ORAL, Dose: 0, 12000 PPM IN DIET FOR 128 WK, CONTROL GROUP DIET RESTRICTED TO LIMIT WEIGHTS TO 85% OF AD LIBITUM-FED GROUP (STUDY DU inactive; negative

O=C1NCCN1/N=C/c1ccc([N+](=O)[O-])o1
active: Species: RAT, Route: ORAL, Tumor Site: Type of Lesion: LYMPHATIC SYSTEM: LYMPHOBLASTIC LYMPHOMA, MAMMARY GLAND active; positive

Cl/C=C/CCl
inactive: Species: MOUSE, Strain/Sex: B6C3F1/FEMALE, Route: INHALATION, Dose: 0, 5, 20, 60 PPM TECHNICAL GRADE 6 HR/D 5 D/WK FOR 2 YR (STUDY DURATION: 2 YR), Dose: 0, 5, 20, 60 PPM TECHNICAL GRADE 6 HR/D 5 D/WK FOR 2 YR (STUDY DURATION: 2 YR) inactive; negative | Species: MOUSE, Strain/Sex: B6C3F1/FEMALE, Route: ORAL, Dose: 0, 2.5, 25, 50 MG/KG BW IN DIET FOR 104 WK (STUDY DURATION: 104 WK), Dose: 0, 2.5, 25, 50 MG/KG BW IN DIET FOR 104 WK (STUDY DURATION: 104 WK) inactive; negative | Species: MOUSE, Strain/Sex: B6C3F1/MALE, Route: ORAL, Dose: 0, 2.5, 25, 50 MG/KG BW IN DIET FOR 104 WK (STUDY DURATION: 104 WK), Dose: 0, 2.5, 25, 50 MG/KG BW IN DIET FOR 104 WK (STUDY DURATION: 104 WK) inactive; negative | Species: RAT, Strain/Sex: F344/FEMALE, Route: INHALATION, Dose: 0, 5, 20, 60 PPM TECHNICAL GRADE 6 HR/D 5 D/WK FOR 2 YR (STUDY DURATION: 2 YR), Dose: 0, 5, 20, 60 PPM TECHNICAL GRADE 6 HR/D 5 D/WK FOR 2 YR (STUDY DURATION: 2 YR) inactive; negative | Species: RAT, Strain/Sex: F344/MALE, Route: INHALATION, Dose: 0, 5, 20, 60 PPM TECHNICAL GRADE 6 HR/D 5 D/WK FOR 2 YR (STUDY DURATION: 2 YR), Dose: 0, 5, 20, 60 PPM TECHNICAL GRADE 6 HR/D 5 D/WK FOR 2 YR (STUDY DURATION: 2 YR) inactive; negative
active: Species: MOUSE, Strain/Sex: B6C3F1/FEMALE, Route: GAVAGE, Dose: 0, 50, 100 MG/KG BODY WT (TELONE II) IN CORN OIL 3 D/WK FOR 104 WK, Dose: 0, 50, 100 MG/KG BODY WT (TELONE II) IN CORN OIL 3 D/WK FOR 104 WK, Tumor Site: Type of Lesion: URINARY BLADDER: TRANSITIONAL CELL CARCINOMA, LUNG: ALVEOLAR/BRONCHIOLAR ADENOMA, ALVEOLAR/BRONCHIOLAR ADENOMA OR CARCIN active; positive | Species: MOUSE, Strain/Sex: B6C3F1/MALE, Route: INHALATION, Dose: 0, 5, 20, 60 PPM TECHNICAL GRADE 6 HR/D 5 D/WK FOR 2 YR (STUDY DURATION: 2 YR), Dose: 0, 5, 20, 60 PPM TECHNICAL GRADE 6 HR/D 5 D/WK FOR 2 YR (STUDY DURATION: 2 YR), Tumor Site: Type of Lesion: LUNG: BRONCHIOALVEOLAR ADENOMA active; positive | Species: RAT, Strain/Sex: F344/FEMALE, Route: GAVAGE, Dose: 0, 25, 50 MG/KG BODY WT (TELONE II) IN CORN OIL 3 D/WK FOR 104 WK, Dose: 0, 25, 50 MG/KG BODY WT (TELONE II) IN CORN OIL 3 D/WK FOR 104 WK, Tumor Site: Type of Lesion: FORESTOMACH: SQUAMOUS CELL PAPILLOMA active; positive | Species: RAT, Strain/Sex: F344/FEMALE, Route: ORAL, Dose: 0, 2.5, 12.5, 25 MG/KG BW IN DIET FOR 104 WK (STUDY DURATION: 104 WK), Dose: 0, 2.5, 12.5, 25 MG/KG BW IN DIET FOR 104 WK (STUDY DURATION: 104 WK), Tumor Site: Type of Lesion: LIVER: HEPATOCELLULAR ADENOMA active; positive | Species: RAT, Strain/Sex: F344/MALE, Route: GAVAGE, Dose: 0, 25, 50 MG/KG BODY WT (TELONE II) IN CORN OIL 3 D/WK FOR 104 WK, Dose: 0, 25, 50 MG/KG BODY WT (TELONE II) IN CORN OIL 3 D/WK FOR 104 WK, Tumor Site: Type of Lesion: FORESTOMACH: SQUAMOUS CELL PAPILLOMA, SQUAMOUS CELL PAPILLOMA OR CARCINOMA, LIVER: NEOPLASTIC NODULE, NEOPLASTIC NODULE active; positive | Species: RAT, Strain/Sex: F344/MALE, Route: ORAL, Dose: 0, 2.5, 12.5, 25 MG/KG BW IN DIET FOR 104 WK (STUDY DURATION: 104 WK), Dose: 0, 2.5, 12.5, 25 MG/KG BW IN DIET FOR 104 WK (STUDY DURATION: 104 WK), Tumor Site: Type of Lesion: LIVER: HEPATOCELLULAR ADENOMA active; positive

CCC(C)[C@H]1O[C@]2(CC[C@@H]1C)CC1C[C@@H](C/C=C(\C)[C@@H](O[C@H]3C[C@H](OC)[C@@H](OC4C[C@H](OC)[C@@H](O)[C@H](C)O4)[C@H](C)O3)[C@@H](C)/C=C/C=C3\CO[C@@H]4[C@H](O)C(C)=C[C@@H](C(=O)O1)[C@]34O)O2 (some centres not stated) (tested in a mixture with another compound)
inactive: Species: RAT, Strain/Sex: WISTAR/MALE, Route: ORAL, Dose: 0, 2 PPM IN DIET FOR DURATION OF STUDY (STUDY DURATION: 1 YR) inactive; negative

C=CC(=O)O
inactive: Species: MOUSE, Strain/Sex: C3H/MALE, Route: DERMAL, Dose: 0, 0.20 MG IN 25 µL ACETONE 3/WK FOR LIFESPAN (STUDY DURATION: LIFESPAN) inactive; negative | Species: RAT, Strain/Sex: WISTAR/FEMALE, Route: ORAL, Dose: 0, 120, 400, 1200 PPM IN DRINKING WATER FOR 28 MO (STUDY DURATION: 28 MO), Dose: 0, 120, 400, 1200 PPM IN DRINKING WATER FOR 28 MO (STUDY DURATION: 28 MO) inactive; negative | Species: RAT, Strain/Sex: WISTAR/MALE, Route: ORAL, Dose: 0, 120, 400, 1200 PPM IN DRINKING WATER FOR 26 MO (STUDY DURATION: 26 MO), Dose: 0, 120, 400, 1200 PPM IN DRINKING WATER FOR 26 MO (STUDY DURATION: 26 MO) inactive; negative
